Test results reported in patent EP0702015B1, “Bicyclic oxazole and thiazole substituted ethers” (Novartis AG, priority 1994, dated 1996).

Tests used:
[1] = system: rat muscle cell line (L6 myocytes); assay: L6 myocyte screen (glucose utilization); assay type: cell-based; conditions: differentiated L6 myocytes, 20 hours treatment, DMEM with 15 mM glucose, concentration producing 50 % of maximum response versus control, read-out: EC50 in the L6 myocyte test
Method: This is indicated in standard tests, e.g. in vitro by the L6 myocyte screen in a rat muscle cell line:
The L6 myocyte screen determines the direct effects of 1 to 300 µM concentrations of the agents on glucose utilization in the rat muscle cell line. Rat L6 myoblasts (American Type Culture Collection) are maintained in Dulbecco's modified Eagle's medium (DMEM, Gibco) containing 5 mM glucose and 10 % calf serum supplement. The L6 myoblasts are plated in 96-well microtiter plates at a density of 3000 cells/well. Differentiated myocytes are used in experiments on the 11th or 13th day after plating. All test agents are dissolved in 1 % dimethylsulfoxide (DMSO) in serum-free testing media. The DMSO has no effect on glucose utilization. Each experiment includes the following internal controls: water, glucose standard (300 mg/dl), media blank, media control, ciglitazone standard (30 µM) and an insulin dose-response curve (0.03 - 1 µM). All compounds are tested in quadruplicate in each experiment at concentrations of 1, 3, 10, 30,100 and 300 µM. The L6 cells are treated with test compound and DMEM containing 15 mM glucose for 20 hours. Glucose utilization is assessed by measurement of glucose remaining in the media using a glucose oxidase assay (Ciba-Corning #S1004B). The EC50 is the concentration of the test agent estimated to produce 50 % of the maximum response versus control.

[2] = system: male ob/ob mice; assay: ob/ob hypoglycemia test; assay type: in vivo; conditions: oral gavage once a day for three days, blood glucose lowering, calculated on day 3
Method: The antidiabetic activity is indicated in vivo e.g. in the ob/ob hypoglycemia test in male ob/ob mice, given 1 to 200 mg/kg of drug. The mice, approximately 2 to 3 months of age, weighing about 30 g, are kept in a room at a controlled ambient temperature of 22° C and a 12/12 hour light/dark cycle for at least seven days before the screen and then during testing. In the ob/ob screen, Purina rodent chow and water are available ad libitum. For each screen, mice are matched and placed in treatment groups (six mice per group) on the basis of initial blood glucose levels the day prior to screening (day 0). Animals are dosed once a day for three days with either vehicle (carboxymethylcellulose 0.5 %, with Tween-80 0.2 %) or test compound in vehicle. The animals receive 0.1 ml/10 g body weight administered orally by gavage. On day 1, blood glucose levels are sampled from the tip of the tail at 2 and 4 hours post-dose. On day 3, blood glucose levels are sampled at 2, 4 and 8 hours post-dose. Blood glucose levels are measured by the glucose oxidase method (YSI Model 27, Yellow Springs, Ohio). […] A systematic, quantitative procedure for assessing the behavioral and physiological state of the mouse, in Psychopharmacologica 12 (1968) 222-257.
Efficacy for glucose lowering is determined by comparing glucose levels of control animals to those of treated animals. […]

Compound	EC50 [1] [µM]	EC50 in the ob/ob hypoglycemia test [2]
O=C1CC[C@]2(c3ccc(Cl)c(Cl)c3)O[C@H](COc3ccc(Cl)cc3)CN12 (racemic) [Example 3, (±)-trans-2-[(4-Chlorophenoxy)methyl]-7a-(3,4-dichlorophenyl)-2,3,7,7a-tetrahydropyrrolo[2,1-b]oxazol-5(6H)-one]	~14	about 62 mg/kg
O=C1CC[C@]2(c3ccc(Cl)c(Cl)c3)O[C@H](COc3ccc(Cl)cc3)CN12 [Example 1, (-)-trans-2S-[(4-Chlorophenoxy)methyl]-7A-(3,4-dichlorophenyl)-2,3,7,7a-tetrahydropyrrolo[2.1-b]oxazol-5(6H)-one]	~10	–
